From ChEMBL document CHEMBL5244244, “Fight against novel coronavirus: A perspective of medicinal chemists” (Eur J Med Chem, 2020)

Legend:
[1] = Selectivity index, ratio of CC50 for African green monkey Vero E6 cells to EC50 for antiviral activity against SARS-CoV-2 2019BetaCoV/Wuhan/WIV04/2019; assay type: toxicity, Vero C1008; conditions: read-out: Selectivity Index
[2] = Cytotoxicity against African green monkey Vero E6 cells assessed as reduction of cell viability measured after 48 hrs by CCK-8 assay; assay type: toxicity, cell-based, Vero C1008; conditions: chlorocebus sabaeus
[3] = system: SARS-CoV-2; experiment: Antiviral activity against SARS-CoV-2 2019BetaCoV/Wuhan/WIV04/2019 infected in African green monkey Vero E6 cells assessed as inhibition of viral replication measured after 48 hrs; assay type: functional, organism-based; conditions: Severe acute respiratory syndrome coronavirus 2, 2019BetaCoV/Wuhan/WIV04/2019, Vero C1008, 48 h
[4] = target: Replicase polyprotein 1ab (Severe acute respiratory syndrome coronavirus 2, UniProt P0DTD1); experiment: Inhibition of SARS-CoV-2 main protease
[5] = Cytotoxicity against african green monkey Vero cells; assay type: toxicity, cell-based; conditions: chlorocebus sabaeus
[6] = system: SARS-CoV-2; experiment: Antiviral activity against SARS-CoV-2 infected in African green monkey Vero cells assessed as inhibition of viral replication; assay type: functional, organism-based; conditions: Severe acute respiratory syndrome coronavirus 2, Vero
[7] = Selectivity index, ratio of CC50 for African green monkey Vero cells to EC50 for antiviral activity against SARS-CoV-2; assay type: toxicity; conditions: read-out: Selectivity Index

NC(=O)c1nc(F)c[nH]c1=O
selectivity ratio [1]: > 6.46 | CC50 at 48 h [2]: > 400 µM

CCN(CC)CCCC(C)Nc1ccnc2cc(Cl)ccc12 (stereo not drawn) [CHLOROQUINE]
CC50 at 48 h [2]: > 100 µM | EC50 [3]: 1.13 µM

Cc1cccc(C)c1OCC(=O)N[C@@H](Cc1ccccc1)[C@@H](O)C[C@H](Cc1ccccc1)NC(=O)[C@H](C(C)C)N1CCCNC1=O [LOPINAVIR]
IC50 [4]: 9.12 µM

N=C(N)c1ccc2cc(OC(=O)c3ccc(N=C(N)N)cc3)ccc2c1 [NAFAMOSTAT]
CC50 [5]: > 100 µM | EC50 [6]: 22.5 µM | selectivity ratio [7]: 4.44

O=C(Nc1ccc([N+](=O)[O-])cc1Cl)c1cc(Cl)ccc1O [NICLOSAMIDE]
CC50 at 48 h [2]: > 35.5 µM | EC50 [3]: 2.12 µM

Nc1nc2c(ncn2CCC(CO)CO)c(=O)[nH]1 [PENCICLOVIR]
selectivity ratio [1]: > 4.17 | CC50 at 48 h [2]: > 400 µM

NC(=O)c1ncn([C@@H]2O[C@H](CO)[C@@H](O)[C@H]2O)n1 [RIBAVIRIN]
CC50 at 48 h [2]: > 400 µM
